Experimental data reported in publication PMC11264596, “Auxin-mediated regulation of susceptibility to toxic metabolites, c-di-GMP levels, and phage infection in the rhizobacterium Serratia plymuthica” (mSystems, 2024).

Target: T1, TrpRA153 (AWY96_RS12805) (Serratia plymuthica, UniProt A0A2X4U763)
T1 construct: gene trpR
Experiment: isothermal titration calorimetry
Format: binding

Structure (SMILES)	Kd
O=C(O)Cc1c[nH]c2ccccc12 [IAA, indole-3-acetic acid]	326 ± 30 µM
O=C(O)C(=O)Cc1c[nH]c2ccccc12 [IPA, indole-3-pyruvic acid]	101 ± 7 µM
N[C@@H](Cc1c[nH]c2ccccc12)C(=O)O [L-Trp]	91 ± 3 µM
